Measured values from article PMC3523469 (Investigational New Drugs, 2012).

Assay: Plasma pharmacokinetics after single
Format: in vivo, Japanese patients
Settings: for Ctrough: range (min, max) of averaged Ctrough concentrations from Day 1 of Cycles 2 to 4; for AUC(0-inf) / half-life / Cmax / Tmax: human, plasma

COc1cc2ncnc(Nc3ccc(F)c(Cl)c3)c2cc1NC(=O)/C=C/CN1CCCCC1 [dacomitinib, Dacomitinib]
Ctrough (15 mg QD): 28.2 to 33.2 ng/mL | Ctrough (30 mg QD): 49.0 to 56.5 ng/mL | Ctrough (45 mg QD): 60.9 to 76.6 ng/mL | kinetics after single- and multiple-dose administration (dose range studied, 15–45 mg): linear kinetics | AUC(0-inf) (oral, 15 mg): 660 ng·h/mL | half-life (oral, 15 mg): 61.1 h | Cmax (oral, 15 mg, single dose (D-9), N 3, mean (%CV)): 8 ng/mL | Tmax (oral, 15 mg, Tmax, multiple dose (C1D14), 15 mg QD, N 2, median (min, max)): 15 h | Tmax (oral, 15 mg, Tmax, single dose (D-9), N 3, median (min, max)): 24 h | AUC(0-inf) (oral, 30 mg): 988 ng·h/mL | half-life (oral, 30 mg): 98 h | Cmax (oral, 30 mg, multiple dose (C1D14), 30 mg QD, N 3, mean (%CV)): 64.3 ng/mL | Cmax (oral, 30 mg, single dose (D-9), N 3, mean (%CV)): 12.2 ng/mL | Tmax (oral, 30 mg, Tmax, multiple dose (C1D14), 30 mg QD, N 3, median (min, max)): 4 h | Tmax (oral, 30 mg, Tmax, single dose (D-9), N 3, median (min, max)): 8 h | AUC(0-inf) (oral, 45 mg): 1600 ng·h/mL | half-life (oral, 45 mg): 80 h | Cmax (oral, 45 mg, multiple dose (C1D14), 45 mg QD, N 6, mean (%CV)): 81.2 ng/mL | Cmax (oral, 45 mg, single dose (D-9), N 7, mean (%CV)): 21.2 ng/mL | Tmax (oral, 45 mg, Tmax, multiple dose (C1D14), 45 mg QD, N 6, median (min, max)): 8 h | Tmax (oral, 45 mg, Tmax, single dose (D-9), N 7, median (min, max)): 6 h | Tmax (po, median Tmax, single oral dose (D-9), range over the dose range of 15–45 mg): 6 to 24 h | Cave (multiple dose (C1D14), 30 mg QD, N 3, mean (%CV)): 56.3 (22) ng/mL | Cave (multiple dose (C1D14), 45 mg QD, N 6, mean (%CV)): 75.1 (23) ng/mL | dose dependence of Cmax and AUCinf (single oral dose (D-9), 15–45 mg): increased along with dose in a proportional manner
